Assay results as given in patent US12060355B2, “Compounds for use in the treatment of fascioliasis” (Merck Patent GmbH, priority 2018, dated 2024).
Where two headings read alike, the source gives them in different places.

Experiments:
[1] = test system: F. hepatica adult fluke; experiment: F. hepatica adult fluke motility score, in vitro; type: cell-based, Fasciola hepatica; parameters: key: Good movement Score 1 • (Curled, sticking on wall, movement on petri plate or conical flask); Moderate movement Score 2 • (Less vigor but more than 10 seconds pulses or peristaltic waves); Resting Score 3 • (Less than 10 second pulses in head and body); Apathetic Score 4 • (Head and body with less than 2 second pulses); Faint movement of suckers Score 5 • (Movement of oral or ventral suckers only, whole body paralyzed); Inert Score 6 • (No movement at all or dead); conditions: for F. hepatica motility score after 24 h / F. hepatica motility score after 48 h / F. hepatica motility score after 72 h: adult fluke; for F. hepatica motility score after 24 h: score 1 (good movement) to 6 (inert); for F. hepatica motility score after 48 h / F. hepatica motility score after 72 h: score 1 to 6 (inert)
Source text: The routine biological assays using adult liver fluke are described in Alessandra Crusco, Cinzia Bordoni, Anand Chakroborty, Kezia C. L. Whatley, Helen Whiteland, Andrew D. Westwell, Karl F. Hoffmann, “Design, synthesis and anthelmintic activity of 7-keto-sempervirol analogues”, European Journal of Medicinal Chemistry, Volume 152, 2018, Pages 87-100.
The routine biological assays using adult or juvenile S. mansoni worms and cytotoxicity assays using MRC-5 cells have been disclosed previously in Mansour, N. R., et al. (2016). “High Throughput Screening Identifies Novel Lead Compounds with Activity against Larval, Juvenile and Schistosoma mansoni PLoS Negl Trop Dis 10(4): e0004659. […] Motility is scored as per the table below: • Good movement Score 1 • (Curled, sticking on wall, movement on petri plate or conical flask) • Moderate movement Score 2 • (Less vigor but more than 10 seconds pulses or peristaltic waves) • Resting Score 3 • (Less than 10 second pulses in head and body) • Apathetic Score 4 • (Head and body with less than 2 second pulses) • Faint movement of suckers Score 5 • (Movement of oral or ventral suckers only, whole body paralyzed) • Inert Score 6 • (No movement at all or dead) • (b) S. mansoni adult worms • (c) S. mansoni juvenile worms • (d) S. haemotobium adult worms • (e) Cytotoxicity against human MRC-5 cell line • (f) Cytotoxicity against human HepG2 cell lines

[2] = test system: human HepG2 cell lines; type: cell-based; conditions: human HepG2 cell line
[3] = test system: juvenile worms; experiment: In vivo mouse model infected with juvenile worms, worm recovery; parameters: species or system S. mansoni; conditions: Schistosoma mansoni, 360 h, mice, juvenile infection, Formulation F1, read-out: Percent worm reduction
Protocol: Methods for the subcutaneous infection of mice and subsequent worm recovery were as described in Mansour et al (2016) except that infection was with 150 cercariae and the perfusion medium was citrate saline (0.9% sodium chloride, 1.5% tri-sodium citrate). Perfusion was carried out 8 days (adult infections) or 15 days (juvenile infections) after treatment. Perfuseate was collected into 30 mL universal tubes. RBC (Red Blood Cells) were removed by allowing the perfuseate to settle for 10 min, removal of most of the supernatant and washing once as above with 10 mL perfusion medium. A drop of dilute aqueous saponin solution was added to lyse any remaining RBC and the worm suspension poured into a grid-marked small petri dish. The tube was rinsed out into the petri dish and examined for any remaining worms. Worms were counted using a dissecting microscope. The mouse livers removed after perfusion were squashed between two thick glass plates and examined visually and any remaining worms added to those counted as above.
For testing efficacy against the juvenile worms, treatment was on day 25 post infection and for testing against the adult worms on day 42 post infection. Drugs were suspended in 7% Tween-80/3% Ethanol/double distilled water and drug dispersal was facilitated by vortexing and using a sonicating water bath (Formulation F1). […]

[4] = test system: S. mansoni adult worms; experiment: S. mansoni adult worm assay, in vitro; type: cell-based; conditions: Schistosoma mansoni, read-out: S. mansoni Adult
Protocol: (§1) The routine biological assays using adult or juvenile S. mansoni worms and cytotoxicity assays using MRC-5 cells have been disclosed previously in Mansour, N. R., et al. (2016). “High Throughput Screening Identifies Novel Lead Compounds with Activity against Larval, Juvenile and Schistosoma mansoni PLoS Negl Trop Dis 10(4): e0004659. Cytotoxicity assays using the HepG2 cell line were carried out as described in Molecular Diversity (2015) 19, 251-261. • (a) F. hepatica adult fluke motility score tested at 5 μM. Motility is scored as per the table below: • Good movement Score 1 • (Curled, sticking on wall, movement on petri plate or conical flask) • Moderate movement Score 2 • (Less vigor but more than 10 seconds pulses or peristaltic waves) • Resting Score 3 • (Less than 10 second pulses in head and body) • Apathetic Score 4 • (Head and body with less than 2 second pulses) • Faint movement of suckers Score 5 • (Movement of oral or ventral suckers only, whole body paralyzed) • Inert Score 6 • (No movement at all or dead) • (b) S. mansoni adult worms • (c) S. mansoni juvenile worms • (d) S. haemotobium adult worms • (e) Cytotoxicity against human MRC-5 cell line • (f) Cytotoxicity against human HepG2 cell lines

[5] = test system: S. mansoni juvenile worms; experiment: S. mansoni juvenile worm assay, in vitro; type: cell-based; conditions: Schistosoma mansoni, read-out: S. mansoni Juvenile
Protocol: as §1

CC(C)c1nc2cnc(-c3ccc(F)c(C(F)(F)F)c3)cn2c1-c1c(F)cc(O)cc1F [Example 17, 3,5-difluoro-4-[2-(propan-2-yl)-6-[4-fluoro-3-(trifluoromethyl)phenyl]imidazo[1,2-a]pyrazin-3-yl]phenol]
Mean motility score of F hepatica at 24 h ([1]; 0.04 μM): 1, 1, 1
Mean motility score of F hepatica at 48 h ([1]; 0.04 μM): 1, 1, 1
Mean motility score of F hepatica at 72 h ([1]; 0.04 μM): 1, 1, 1
Mean motility score of F hepatica at 24 h ([1]; 0.2 μM): 3
Mean motility score of F hepatica at 48 h ([1]; 0.2 μM): 3
Mean motility score of F hepatica at 72 h ([1]; 0.2 μM): 6
Mean motility score of F hepatica at 24 h ([1]; 1 μM): 6, 6, 6
Mean motility score of F hepatica at 48 h ([1]; 1 μM): 6, 6, 6
Mean motility score of F hepatica at 72 h ([1]; 1 μM): 6, 6, 6
Mean motility score of F hepatica at 24 h ([1]; 5 μM): 6, 6, 6
Mean motility score of F hepatica at 48 h ([1]; 5 μM): 6, 6, 6
Mean motility score of F hepatica at 72 h ([1]; 5 μM): 6, 6, 6
F. hepatica motility score after 24 h ([1]; 5 μM): (6, 6, 6) at 5 μM
F. hepatica motility score after 48 h ([1]; 5 μM): (6, 6, 6) at 5 μM
F. hepatica motility score after 72 h ([1]; 5 μM): (6, 6, 6) at 5 μM
Cytotox HepG2 [2]: 7.1 µM
inhibition in vivo at 50 mg/kg ([3]; oral 50 mg/kg): 38%
inhibition in vivo at 200 mg/kg ([3]; oral 200 mg/kg): 84%

CC(C)c1nc2cnc(-c3cccc(C(F)(F)F)c3)cn2c1-c1ccc(OP(=O)(O)O)cc1F [Example 3, 3-fluoro-4-[2-(propan-2-yl)-6-[3-(trifluoromethyl)phenyl]imidazo[1,2-a]pyrazin-3-yl]phenoxyphosphonic acid]
Cytotox HepG2 [2]: 9.2 µM
IC50 [4]: < 49 nM
IC50 [5]: 130 nM

CC(C)c1nc2cnc(-c3ccc(F)c(C(F)(F)F)c3)cn2c1-c1c(F)cc(OP(=O)(O)O)cc1F [Example 40, 3,5-difluoro-4-{6-[4-fluoro-3-(trifluoromethyl)phenyl]-2-(propan-2-yl)imidazo[1,2-a]pyrazin-3-yl}phenoxyphosphonic acid]
Cytotox HepG2 [2]: 6.5 µM
IC50 [4]: 27 nM
IC50 [5]: 25 nM

CC(C)c1nn2ccc(-c3ccc(F)c(C(F)(F)F)c3)cc2c1-c1ccc2[nH]ncc2c1F [Example 55, 4-Fluoro-5-[5-(4-fluoro-3-trifluoromethyl-phenyl)-2-isopropylpyrazolo[1,5-a]pyridin-3-yl]-1H-indazole]
F. hepatica motility score after 24 h ([1]; 5 μM): (6, 6, 6) at 5 μM
F. hepatica motility score after 48 h ([1]; 5 μM): (6, 6, 6) at 5 μM
F. hepatica motility score after 72 h ([1]; 5 μM): (6, 6, 6) at 5 μM
Cytotox HepG2 [2]: 11.1 µM
IC50 ([4]; adult worms in vitro): 28 nM
IC50 ([5]; juvenile worms in vitro, IC50): 22 nM
